Columns and labels:
[1] = tested on: human umbilical vein endothelial cells (HUVEC); experiment: HUVEC+VEGF Proliferation Assay; type: cell-based; settings: VEGF-stimulated proliferation, final VEGF 6 ng/mL, 72 hours, MTT dye reduction
Experimental: This assay determines the ability of a test compound to inhibit the growth factor-stimulated proliferation of human umbilical vein endothelial cells (“HUVEC”). HUVEC cells (passage 3-4, Clonetics, Corp.) were thawed into EGM2 culture medium (Clonetics Corp) in T75 flasks. Fresh EGM2 medium was added to the flasks 24 hours later. Four or five days later, cells were exposed to another culture medium (F12K medium supplemented with 10% fetal bovine serum (FBS), […] endothelial cell growth supplement (ECGS), and 0.1 mg/mL heparin). Exponentially-growing HUVEC cells were used in experiments thereafter. Ten to twelve thousand HUVEC cells were plated in 96-well dishes in […] of rich, culture medium (described above). The cells were allowed to attach for 24 hours in this medium. The medium was then removed by aspiration and […] of starvation media (F12K+1% FBS) was added to each well. After 24 hours, […] of test agent dissolved in 1% DMSO in starvation medium or this vehicle alone was added into each treatment well; the final DMSO concentration was 0.1%. One hour later, […] of VEGF (30 ng/mL) in starvation media was added to all wells except those containing untreated controls; the final VEGF concentration was 6 ng/mL. Cellular proliferation was quantified 72 hours later by MTT dye reduction, at which time cells were exposed for 4 hours MTT (Promega Corp.). Dye reduction was stopped by addition of a stop solution (Promega Corp.) and absorbance at 595 nm was determined on a 96-well spectrophotometer plate reader.

[2] = target: T1, human vascular endothelial growth factor receptor 2 (VEGF-R2) (Homo sapiens, UniProt P35968, DEL940-989/E990V); experiment: VEGF-R2 coupled spectrophotometric assay (FLVK); type: biochemical; settings: unphosphorylated VEGF-R2D50 (FLVK)
T1 construct: VEGF-R2D50 contains residues 806-939 and 990-1171; made in house; host or cells: baculovirus/insect cell system
Source text: This construct determines the ability of a test compound to inhibit tyrosine kinase activity. A construct (VEGF-R2D50) of the cytosolic domain of human vascular endothelial growth factor receptor 2 (VEGF-R2) lacking the 50 central residues of the 68 residues of the kinase insert domain was expressed in a baculovirus/insect cell system. Of the 1356 residues of full-length VEGF-R2, VEGF-R2D50 contains residues 806-939 and 990-1171, and also one point mutation (E990V) within the kinase insert domain relative to wild-type VEGF-R2. Autophosphorylation of the purified construct was performed by incubation of the enzyme at a concentration of […] in the presence of 3 mM ATP and 40 mM MgCl2 in 100 mM HEPES, pH 7.5, containing 5% glycerol and 5 mM DTT, at 4° C. for 2 h. […] See Parast et al., Biochemistry, 37, 16788-16801 (1998).
The production of ADP from ATP that accompanies phosphoryl transfer was coupled to oxidation of NADH using phosphoenolpyruvate (PEP) and a system having pyruvate kinase (PK) and lactic dehydrogenase (LDH). The oxidation of NADH was monitored by following the decrease of absorbance at 340 nm (e340=6.22 cm^−1 mM^−1) using a Beckman DU 650 spectrophotometer. Assay conditions for phosphorylated VEGF-R2D50 (indicated as FLVK-P in the tables below) were the following: 1 mM PEP; […]; 50 units of LDH/mL; 20 units of PK/mL; 5 mM DTT; 5.1 mM poly(E4Y1); 1 mM ATP; and 25 mM MgCl2 in 200 mM HEPES, pH 7.5. Assay conditions for unphosphorylated VEGF-R2D50 (indicated as FLVK in the tables) were the following: 1 mM PEP; […]; 50 units of LDH/mL; 20 units of PK/mL; 5 mM DTT; 20 mM poly(E4Y1); 3 mM ATP; and 60 mM MgCl2 and 2 mM MnCl2 in 200 mM HEPES, pH 7.5. Assays were initiated with 5 to 40 nM of enzyme. Ki values were determined by measuring enzyme activity in the presence of varying concentrations of test compounds. The percent inhibition at 50 nm (% inhibition @ 50 nm) was determined by linear least-squares regression analysis of absorbance as a function of time. The binding inhibitions were fitted to equation as described by Morrison. The data were analyzed using Enzyme Kinetic and Kaleidagraph software.

T1 sequence (P35968 with tags, fused parts or gaps DEL940-989/E990V limits assumed): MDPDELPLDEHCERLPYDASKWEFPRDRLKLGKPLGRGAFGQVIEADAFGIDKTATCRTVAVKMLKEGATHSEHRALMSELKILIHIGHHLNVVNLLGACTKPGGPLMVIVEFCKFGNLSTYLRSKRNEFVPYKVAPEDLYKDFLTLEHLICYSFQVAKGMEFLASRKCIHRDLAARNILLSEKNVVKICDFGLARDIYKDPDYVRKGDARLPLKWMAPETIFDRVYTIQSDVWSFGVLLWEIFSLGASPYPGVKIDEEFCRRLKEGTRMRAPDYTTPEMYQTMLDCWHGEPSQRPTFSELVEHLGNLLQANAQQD

| Compound | IC50 [1] | Ki [2] |
| --- | --- | --- |
| O=C(Nc1ccc(N2CCC(O)CC2)nc1)c1cccc2cc(Oc3ccnc4ccsc34)ccc12 [Example 34, 6-(Thieno[3,2-b]pyridin-7-yloxy)-naphthalene-1-carboxylic acid (4-hydroxy-3,4,5,6-tetrahydro-2H-[1,2′]bipyridinyl-5′-yl)-amide] | 1 to 10 nM | < 1 nM |
| O=C(Nc1ccc(N2CCOCC2)nc1)c1cccc2cc(Oc3ccnc4ccsc34)ccc12 [Example 35, 6-(Thieno[3,2-b]pyridin-7-yloxy)-naphthalene-1-carboxylic acid (6-morpholin-4-yl-pyridin-3-yl)-amide] | 1 to 10 nM | < 1 nM |
| O=C(NCCN1CCOCC1)c1cccc2cc(Oc3ccnc4ccsc34)ccc12 [Example 15, N-(2-Morpholin-4-ylethyl)-6-(thieno[3,2-b]pyridin-7-yloxy)-1-naphthamide] | > 10 nM | 1 to 10 nM |
| CN(C)[C@@H]1CCN(C(=O)c2cc3nccc(Oc4ccc5c(C(=O)NC6CC6)cccc5c4)c3s2)C1 [Example 9, N-Cyclopropyl-6-[(2-{[(3R)-3-(dimethylamino)pyrrolidin-1-yl]carbonyl}thieno[3,2-b]pyridin-7-yl)oxy]-1-naphthamide] | – | < 1 nM |
| CN(C)CCNC(=O)c1cccc2cc(Oc3ccnc4ccsc34)ccc12 [Example 41, 6-(Thieno[3,2-b]pyridin-7-yloxy)-naphthalene-1-carboxylic acid (2-dimethylamino-ethyl)-amide] | – | > 10 nM |
| CNC(=O)c1cccc2cc(Oc3ccnc4cc(OCCN5CCOCC5)ccc34)ccc12 [Example 45, 6-[7-(2-Morpholin-4-yl-ethoxy)-quinolin-4-yloxy]-naphthalene-1-carboxylic Acid Methylamide] | < 1 nM | < 1 nM |
| CCCCNC(=O)c1cccc2cc(Oc3ccnc4cc(OCCN5CCCC5)ccc34)ccc12 [Example 49, 6-[7-(2-Pyrrolidin-1-yl-ethoxy)-quinolin-4-yloxy]-naphthalene-1-carboxylic Acid Butylamide] | 1 to 10 nM | 1 to 10 nM |
| O=C(NCCCN1CCOCC1)c1cccc2cc(Oc3ccnc4cc(C(=O)N5CCC5)sc34)ccc12 [Example 32, 6-[2-(Azetidine-1-carbonyl)-thieno[3,2-b]pyridin-7-yloxy]-naphthalene-1-carboxylic acid (3-morpholin-4-yl-propyl)-amide] | 1 to 10 nM | < 1 nM |
| CNC(=O)c1cccc2cc(Oc3ccnc4cc(C(=O)N(C)C)sc34)ccc12 [Example 4, N,N-Dimethyl-7-({5-[(methylamino)carbonyl]-2-naphthyl}oxy) thieno[3,2-b]pyridine-2-carboxamide] | 1 to 10 nM | < 1 nM |
| CNC(=O)c1cccc2c(F)c(Oc3ccnc4cc(C(=O)N(C)C)sc34)ccc12 [Example 2, 7-({1-Fluoro-5-[(methylamino)carbonyl]-2-naphthyl}oxy)-N,N-dimethylthieno[3,2-b]pyridine-2-carboxamide] | < 1 nM | – |
| CNC(=O)c1cccc2cc(Oc3ccnc4cc(C(=O)N(C)CCCN(C)C)sc34)ccc12 [Example 7, N-[3-(Dimethylamino)propyl]-N-methyl-7-({5-[(methylamino)carbonyl]-2-naphthyl}oxy)thieno[3,2-b]pyridine-2-carboxamide] | > 10 nM | 1 to 10 nM |
| COc1ccc2c(Oc3ccc4c(C(=O)NC5CC5)cccc4c3)ccnc2c1 [Example 51, 6-(7-Methoxy-quinolin-4-yloxy)-naphthalene-1-carboxylic acid cyclopropylamide] | 1 to 10 nM | < 1 nM |
| O=C(NCCN1CCOCC1)c1cccc2cc(Oc3ccnc4cc(C(=O)N5CC[C@@H](O)C5)sc34)ccc12 [Example 13, 6-[(2{[(3R)-3-Hydroxypyrrolidin-1-yl]carbonyl}thieno[3,2-b]pyridin-7-yl)oxy]-N-(2-morpholin-4-ylethyl)-1-naphthamide] | 1 to 10 nM | < 1 nM |
| Cn1ccnc1-c1cc2nccc(Oc3ccc4c(C(=O)NCCN5CCOCC5)cccc4c3)c2s1 [Example 14, 6-{[2-(1-Methyl-1H-imidazol-2-yl)thieno[3,2-b]pyridin-7-yl]oxy}-N-(2-morpholin-4-ylethyl)-1-naphthamide] | 1 to 10 nM | < 1 nM |
| CNC(=O)c1cccc2cc(Oc3ccnc4cc(C(=O)N(C)CCN(C)C)sc34)ccc12 [Example 6, N-[2-(Dimethylamino)ethyl]-N-methyl-7-({5-[(methylamino)carbonyl]-2-naphthyl}oxy)thieno[3,2-b]pyridine-2-carboxamide] | > 10 nM | < 1 nM |
| O=C(NCCN1CCOCC1)c1cccc2cc(Oc3ccnc4cc(C(=O)N5CCC5)sc34)ccc12 [Example 31, 6-[2-(Azetidine-1-carbonyl)-thieno[3,2-b]pyridin-7-yloxy]-naphthalene-1-carboxylic acid (2-morpholin-4-yl-ethyl)-amide] | 1 to 10 nM | < 1 nM |
| O=C(NCCCN1CCCCC1)c1cccc2cc(Oc3ccnc4ccsc34)ccc12 [Example 36, 6-(Thieno[3,2-b]pyridin-7-yloxy)-naphthalene-1-carboxylic acid (3-piperidin-1-yl-propyl)-amide] | – | > 10 nM |
| CNC(=O)c1cccc2cc(Oc3ccnc4cc(OCCN5CCCCC5)ccc34)ccc12 [Example 46, 6-[7-(2-Piperidin-1-yl-ethoxy)-quinolin-4-yloxy]-naphthalene-1-carboxylic Acid Methylamide] | < 1 nM | 1 to 10 nM |
| CCCCNC(=O)c1cccc2cc(Oc3ccnc4cc(O)ccc34)ccc12 [Example 48, 6-(7-Hydroxy-quinolin-4-yloxy)-naphthalene-1-carboxylic Acid Butylamide] | 1 to 10 nM | – |
| CNCC1CCN(C(=O)c2cc3nccc(Oc4ccc5c(C(=O)NC)cccc5c4)c3s2)C1 (stereo not drawn) [Example 10, N-Methyl-6-{[2-({3-[(methylamino)methyl]pyrrolidin-1-yl}carbonyl)thieno[3,2-b]pyridin-7-yl]oxy}-1-naphthamide] | – | < 1 nM |
| CCCCNC(=O)c1cccc2cc(Oc3ccnc4cc(OC)ccc34)ccc12 [Example 47, 6-(7-Methoxy-quinolin-4-yloxy)-naphthalene-1-carboxylic Acid Butylamide] | > 10 nM | – |
| CNC(=O)c1cccc2cc(Oc3ccnc4cc(O)ccc34)ccc12 [Example 44, 6-(7-Hydroxy-quinolin-4-yloxy)-naphthalene-1-carboxylic Acid Methylamide] | – | > 10 nM |
| O=C(NCCCN1CCCC1)c1cccc2cc(Oc3ccnc4ccsc34)ccc12 [Example 37, 6-(Thieno[3,2-b]pyridin-7-yloxy)-naphthalene-1-carboxylic acid (3-pyrrolidin-1-yl-propyl)-amide] | – | > 10 nM |
| O=C(NCCN1CCOCC1)c1cccc2cc(Oc3ncnc4ccsc34)ccc12 [Example 52, N-(2-Morpholin-4-ylethyl)-6-(thieno[3,2-d]pyrimidin-4-yloxy)-1-naphthamide] | – | > 10 nM |
| COCCNC(=O)c1cccc2cc(Oc3ccnc4cc(C(=O)N5CC[C@@H](N(C)C)C5)sc34)ccc12 [Example 11, 6-[(2-{[(3R)-3-(Dimethylamino)pyrrolidin-1-yl]carbonyl}thieno[3,2-b]pyridin-7-yl)oxy]-N-(2-methoxyethyl)-1-naphthamide] | – | 1 to 10 nM |

Source: patent US20050070508A1, “Napthalene carboxamides and their derivatives useful as new anti-angiogenic agents” (AGOURON PHARMACEUTICALS, INC., priority 2003, published 2005)
